The text below walks through data of US20160115192A1, “ANTIOXIDANT, ANTI-INFLAMMATORY AND ANTICANCER DERIVATIVES OF TRIPTOLIDE AND NANOSPHERES THEREOF” (CEDARS-SINAI MEDICAL CENTER, priority 2013, published 2016).

SMILES strings stand for the structures.

For data set [1] the following is noted: cited from earlier work.
The conditions of data set [2]: 30 minutes after administration; cited from earlier work.
A further data set deals with B7-H1 (PD-L1). The data set can be described thus: Inhibition of interferon-γ-dependent expression of B7-H1 (PD-L1) on cancer cells. The class given is cell-based.
Another data set deals with B7-H1. Particulars: known effect, background; cited from earlier work.

As for `CC[C@@]1(O)C(=O)OCc2c1cc1n(c2=O)Cc2cc3ccccc3nc2-1` [camptothecin, (S)-4-ethyl-4-hydroxy-1H-pyrano-[3′,4′:6,7]indolizino[1,2-b]quinoline-3, 14(4H,12H)-dione], the solubility in water entry in data set [1] is on record as “essentially insoluble”. Besides, the “lactone form hydrolyzed to an open ring” value in data set [2] is recorded as 50%.
For the molecule `CC(C)[C@]12O[C@H]1[C@@H]1O[C@]13[C@]1(O[C@H]1C[C@H]1C4=C(CC[C@@]13C)C(=O)OC4)[C@@H]2O` [triptolide, Triptolide], the “inhibitory effect on interferon-γ-dependent expression of B7-H1 (PD-L1)” value with B7-H1 (PD-L1) (MDA-MB-231 triple negative breast cancer cell, FIG. 9) was “inhibitory effect”; in the data set on B7-H1 (PD-L1) (MDA-MB-468 triple negative breast cancer cell, FIG. 10) it was “inhibitory effect”; with B7-H1 (PD-L1) (U-87 MG glioma cells, FIG. 8) it was “Inhibitory effect”; in the data set with B7-H1 (PD-L1) (U-87 stem-like cells, FIG. 5) it was “inhibitory effect”; with B7-H1 (PD-L1) (U-251 glioma cell, FIG. 7) it was “inhibitory effect”; in the data set on B7-H1 (PD-L1) (cancer stem cell (CSC-5), FIG. 6), “inhibitory effect”. For the same molecule, in the data set with B7-H1, the “expression of B7-H1 by cancer cells” value was “inhibit”.
